# In PubChem BioAssay AID2124 (Sanford-Burnham Center for Chemical Genomics, 2009):
# Results filed as inconclusive are left out. Active and inactive are the calls of the source. The rule behind the calls is not given here; tested in MIN6 cells.
# Test: GFP-wavelength compound autofluorescence in cells – imaging, high-content imaging, artefact control, dose response (AID 2124);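 note: cells exposed to compound for 48 hours before fixing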
# Details: cells, GFP-channel autofluorescence, high-content imaging, at 10 µM; for z-score: stronger effect = higher value
Structure (SMILES),z-score,cell count [cells]
Cc1cc(NC(=S)N(Cc2ccc(Br)cc2)Cc2ccc(C(=O)O)cc2)ccc1Cl,-0.38 (inactive),2830
COCCN1CN(S(=O)(=O)c2ccccc2)c2nc3ccccc3nc21,-0.38 (inactive),3380
CCn1c(SCC(=O)c2c[nH]c3ccccc23)nc2cc(S(=O)(=O)N3CCOCC3)ccc21,-0.36 (inactive),3200
CN1CCN(C2=CC3=CC(=C(C#N)C#N)CCC3CC2)CC1 (configuration not stated),0.91,2810
Cc1cccc(NC(=O)Nc2ccc(C#N)cc2)n1,-0.32 (inactive),2800
Cc1ccc(Nc2nc3c([nH]2)c(=O)n(C)c(=O)n3C)cc1,-0.39 (inactive),2720
N/C(=N\OC(=O)C1CCCCC1)c1cccc([N+](=O)[O-])c1,-0.33 (inactive),3090
CC(C)(C)c1ccc(OCC(=O)Nc2ccc3c4c(cccc24)C(=O)NC3=O)cc1,-0.31 (inactive),2490
O=C(NCCN1CCCC1)C1(S(=O)(=O)c2ccc(Cl)cc2)CC1,-0.33 (inactive),2860
Cc1cc(C2C(C#N)=C(N)Oc3n[nH]c(C)c32)c(C)s1 (configuration not stated),-0.25 (inactive),3010
S=c1[nH]nc(-c2ccccc2)n1CC1CCCO1 (configuration not stated),-0.33 (inactive),3250
COCCNC(=O)c1onc(CSc2cccc(C)c2)c1C(=O)O,-0.39 (inactive),3170
O=C(Cn1ncn2c(cc3ccccc32)c1=O)NCc1ccco1,-0.39 (inactive),2610
Cc1cc(N2C(=O)c3ccccc3C2=O)n(C)n1,-0.39 (inactive),2960
CC(NC(=O)/C(C#N)=C1\N=C(NC(=O)c2ccco2)c2ccccc21)c1ccccc1 (configuration not stated),-0.32 (inactive),2760
Clc1ccc2oc(-c3ccccn3)nc2c1,-0.24 (inactive),2940
Cc1ccc(-n2c(O)c(/C=N/NC(=O)C3COc4ccccc4O3)c3ccccc3c2=O)cc1 (configuration not stated),-0.25 (inactive),2870
O=S(=O)([O-])CCC[n+]1c(/C=C\Nc2ccccc2)oc2ccc(-c3ccccc3)cc21,1.34,3120
COc1ccc(C)cc1NC(=O)COC(C)=O,-0.33 (inactive),3030

Structure (SMILES),z-score,cell count [cells]
CCOC(=O)Cn1c2ccc(F)cc2c2nc(C)sc21,-0.39 (inactive),2900
O=c1c([N+](=O)[O-])cccn1Cc1ccc(F)cc1Cl,-0.38 (inactive),2960
Cc1cc(C)c(C#N)c(SCC2COc3ccccc3O2)n1 (configuration not stated),-0.33 (inactive),3670
CN(C)C(=O)C1C2NC(=S)N(c3cccc(Cl)c3)C1(C)Oc1ccc(Cl)cc12 (configuration not stated),-0.39 (inactive),3180
CCOC(=O)CC1C(=O)NCCN1c1nc2ccc(C)cn2c(=O)c1/C=C1\SC(=S)N(C(C)CC)C1=O (configuration not stated),-0.02,2960
Cc1cc(C)c2nc(NNC(=O)c3cc(-c4cccs4)nc4ccccc34)sc2c1,-0.33 (inactive),2740
Cc1ccc(N=C2NC(=O)/C(=C/c3cn(C)c4ccccc34)S2)cc1C,-0.23 (inactive),2580
CCN(CC)CCN1C(=O)c2oc3ccccc3c(=O)c2C1c1ccccc1 (configuration not stated),-0.33 (inactive),3330
COc1ccc(NC2=Nc3ccccc3N3C2=Nc2c(c(C)nn2-c2ccc(C)cc2)C3c2cccnc2)cc1 (configuration not stated),-0.31 (inactive),2790
N#C/C(=C\c1ccc(N2CCCCC2)o1)C(=O)Nc1cccc(Br)c1,3.15,2780
N#CC1CC(c2ccc([N+](=O)[O-])cc2)=NN1c1ccc([N+](=O)[O-])cc1 (configuration not stated),-0.25 (inactive),3490
COc1ccc(-n2c(Cc3cccn3C)nnc2SCC(=O)Nc2cccc(C)c2C)cc1,-0.33 (inactive),3130
O=C(Nc1ccon1)c1cccc(S(=O)(=O)N2CCCCC2)c1,-0.39 (inactive),3190
Nc1c(C(=O)c2ccc(Cl)cc2)sc2nsc(SCCN3CCOCC3)c12,0.31,2540
C=CCN1C(=O)/C(=C/C=C2/N(CC)c3ccc(S(=O)(=O)N(C)C)cc3N2CC)SC1=S,0.26,2740
CCCNC(=O)N1CCC(C(=O)c2ccc(Cl)cc2)CC1,-0.38 (inactive),2970
Nc1c(C(=O)N/N=C/c2ccccc2Cl)oc2nc(-c3ccccc3)cc(-c3ccco3)c12,-0.27 (inactive),2970
CCCC1C2CN(C(C)C)CC=C2C(C#N)=C(N)C1(C#N)C#N (configuration not stated),0.45,2800
N#Cc1ccc(-c2ccccc2)nc1SCC(=O)c1cccc(Cl)c1,-0.23 (inactive),3340

Structure (SMILES),z-score,cell count [cells]
CCN1/C(=C/C=C/c2oc3ccc4ccccc4c3[n+]2CC)Oc2ccc3ccccc3c21,1.7,330
Cc1cc(C)n(-c2ccc(C(=O)OCC(=O)N(CC(C)C)C3CCS(=O)(=O)C3)cc2)n1 (configuration not stated),-0.33 (inactive),3480
COc1ccc(NC(=O)c2[nH]c(C)c(C(C)=O)c2C)cc1Cl,-0.33 (inactive),3410
CN(C)c1ccc(C(=O)N/N=C/c2cc(Br)cc(Br)c2O)cc1,-0.38 (inactive),2500
CCCOc1cc(N(CC)CC)ccc1/C=C(/C#N)c1nc2ccc(C)cc2[nH]1,0.73,1370
Cc1ccc(S(=O)(=O)Nc2ccc(=O)n(Cc3ccc(Cl)c(Cl)c3)c2)cc1,-0.33 (inactive),3230
O=C(Nc1nnc(-c2ccccc2)o1)Nc1ccccc1Cl,-0.39 (inactive),2750
N#Cc1c(-c2ccco2)cc(C2CC2)nc1SCC(=O)c1ccccc1,-0.27 (inactive),3090
CCN(CC)c1ccc2cc(-c3nc4ccccc4[nH]3)c(=O)oc2c1,5.37,1680
O=C(COC(=O)c1cc(S(=O)(=O)N2CCOCC2)ccc1O)NCC1CCCO1 (configuration not stated),-0.33 (inactive),3080
CCCCNC(=O)/C(C#N)=c1\s/c(=C\c2ccccc2OC(F)F)c(=O)n1CCCOC,-0.37 (inactive),3260
COC(=O)[C@@H](NC(=O)Nc1cccc(OC)c1)C(C)C,-0.39 (inactive),3030
Nc1cc2nc3ccccc3nc2cc1N,-0.37 (inactive),1390
CCOC(=O)N1CCN(C(=O)c2cc(S(=O)(=O)N3CCCC3)cn2C)CC1,-0.33 (inactive),3250
COc1cccc(/C=N/NC(=O)CCn2cnc3ccccc32)c1,-0.33 (inactive),3250
COc1cc(OC)c(OC)cc1/C=C1\Oc2cc(OS(C)(=O)=O)ccc2C1=O,-0.24 (inactive),3060
CCCCC1=CC2=C(c3ccco3)C(=O)C(C)(OC(=O)c3ccc(OC)cc3)C(=O)C2=CN1CC(C)C (configuration not stated),-0.39 (inactive),2870
CN1CCN(Cc2nc(N)nc(Nc3ccc4c(c3)OCCO4)n2)CC1,-0.39 (inactive),3330
